Results published in patent US20150238394A1, “Triggerable Compositions For Two-Stage, Controlled Release of Proactive Chemistry Using Aldehydes” (Kimberly-Clark Worldwide, Inc., priority 2014, published 2015).

Test: Volatility and smell of non-salt acetals, neat and embedded in polymer films brushed on polyethylene film and air-dried
Type: physicochemical
Settings: embedded in PVP/VA, Eudragit E-100 and Eudragit S-100, brushed on polyethylene films, air-dried
Source text: 1. Acetal of citronellal with ethanol and acetal of vanillin with ethanol were custom-synthesized. Their structures are shown below. […] The acetals were embedded in PVP/VA, Eudragit E-100, and Eudragit S-100 by simply dissolving the acetals in the solutions of those polymers. The solutions were then brushed on polyethylene films and air-dried. The parent aldehydes were also embedded in the same ratio in those polymers. Strong smells of both parent aldehydes and acetals could be nasally detected after drying. Those non-salt based acetals cannot effectively reduce the volatility of aldehyde-based fragrances and are not good pro-actives for stabilizing those fragrances.

smell nasally detected after drying | Compound
Strong smells | COc1cc(C=O)ccc1O [vanillin]
Strong smells | CCOC(CC(C)CCC=C(C)C)OCC (stereo not shown) [Acetal of citronellal with ethanol]
Strong smells | CCOC(OCC)c1ccc(O)c(OC)c1 [acetal of vanillin with ethanol]
Strong smells | CC(C)=CCCC(C)CC=O (stereo not shown) [citronellal]
